Consider four compounds from patent US5272136A, “5-0-α-D-Glucopyranosyl-L-ascorbic acid, and its preparation and uses” (priority 1991, dated 1993).

The nature of data set [1]: Hydrolysis under a relatively-high acidic- and temperature-condition. To be noted: relative to the substances X and Y; pH 1.7, 100° C. The class given is physicochemical. The procedure:
Thus, we removed 2-O-α-D-glucopyranosyl-L-ascorbic acid by using this hydrolysis.
The method was as follows: The second mother liquor was adjusted to give a concentration of 25%, adjusted to pH 1.7 by the addition of hydrochloric acid, and allowed to predominantly hydrolyze 2-O-α-D-glucopyranosyl-L-ascorbic acid at 100° C. Thereafter, the resultant solution was cooled and fed to a column packed with an anion exchange resin (OH^- -form) to adsorb the substances X and Y thereon, and the column was washed with water and fed with 0.5N hydrochloric acid to obtain a solution containing the substances X and Y.

Data set [2] has as its system enzyme of a small intestinal membrane. Description: Hydrolysis by enzyme of small intestinal membrane. The class given is in vitro ADME. Conditions: method of Okada et al.
The next data set in a line: Solubility in solvents. The data set is classed as physicochemical.
Data set [3] in a line: Coloring reaction / direct reducing activity. The class given is physicochemical.
A short description of another data set: physchem. The class given is physicochemical. To be noted: for Stability, residual percentage: 0 min, 70 uM; for remaining at 0.25 h, 70 µM / remaining at 0.5 h, 70 µM / remaining at 1 h, 70 µM / remaining at 21 h, 70 µM: aqueous solution. The protocol:
(h) Stability: The stability of the substance X was compared with L-ascorbic acid as a control. Each specimen was adjusted to give a concentration of 70 μM and to pH 7.0 or pH 2.0, and the resultant each solution was placed in a cell for an absorption spectrophotometer. The cell was set to the absorption spectrophotometer and kept at 20° C., followed by determining at a prescribed time interval an absorbance at 265 nm with the solution of pH 7.0 and an absorbance at 243 nm with the solution of pH 2.0, and comparing the residual percentage (%) of each specimen.

Another data set deals with 7 week-old dd mice. Description: Acute toxicity test, oral. The data set is classed as in vivo. Conditions: up to 5 g of the specimen, a higher dose was difficult. The text has this:
A high-purity 5-O-α-D-glucopyranosyl-L-ascorbic acid, prepared by the method in Experiment 1, was orally administered to 7 week-old dd mice for acute toxicity test. As a result, no mouse died when administered with up to 5 g of the specimen, and a higher dose was difficult.

In the case of `O=C1O[C@H]([C@@H](O)CO)C(O)=C1O[C@H]1O[C@H](CO)[C@@H](O)[C@H](O)[C@H]1O` [2-O-α-D-glucopyranosyl-L-ascorbic acid], in data set [1], the “Hydrolysis under relatively-high acidic- and temperature-condition” value was “more readily hydrolyzed than the substances X and Y”.

The term fraction remaining denotes the share of the starting amount still present when the sample was taken. Low readings indicate a greater loss, high ones greater stability. For the compound `O=C1O[C@H]([C@H](CO)O[C@H]2O[C@H](CO)[C@@H](O)[C@H](O)[C@H]2O)C(O)=C1O` [substance X, 5-O-α-D-glucopyranosyl-L-ascorbic acid], in data set [2], the “Hydrolysis by enzyme of small intestinal membrane” value is recorded as “readily hydrolyzed”. The “Solubility in 0.1M acetic acid” value in the data set “Solubility in solvents” (0.1M acetic acid) is “readily soluble”. Moreover, the “Solubility in 0.1N sodium hydroxide” value in the data set “Solubility in solvents” (0.1N sodium hydroxide) was “readily soluble”. Besides, the Solubility in benzene entry in “Solubility in solvents” (benzene) is “insoluble”. In addition, the Solubility in chloroform entry in the data set “Solubility in solvents” (chloroform) is “insoluble”. Moreover, the Solubility in ethanol entry in the data set “Solubility in solvents” (ethanol) was “slightly soluble”. In “Solubility in solvents” (ether), the Solubility in ether result is “insoluble”. In addition, the Solubility in methanol result in “Solubility in solvents” (methanol) is “slightly soluble”. Besides, in the data set “Solubility in solvents” (water), the Solubility in water result is recorded as “readily soluble”. For the same compound, in data set [3], the “Reducing activity (decoloring of 2,6-dichlorophenolindophenol)” value was “exhibits a reducing activity, and decolors 2,6-dichlorophenolindophenol”. Moreover, the “Stability compared with L-ascorbic acid” value in the data set “physchem” is “stabler than L-ascorbic acid”. In “physchem” (pH 2), the “Stability, residual percentage” value is 100%; the share remaining at 0.25 h, 70 µM was found to be 99%; the amount remaining at 0.5 h, 70 µM came out at 98%; the share remaining at 1 h, 70 µM turned out to be 90%. Moreover, the share remaining at 21 h, 70 µM in the data set “physchem” (pH 2) is 50%. Further, in the data set “physchem” (pH 7), the “Stability, residual percentage” value worked out at 100%; the amount remaining at 0.25 h, 70 µM worked out at 58%; the fraction remaining at 0.5 h, 70 µM was found to be 35%; the fraction remaining at 1 h, 70 µM was found to be 16%. Further, in the data set “physchem” (pH 7), the share remaining at 21 h, 70 µM was found to be 6%. Besides, the “Acute toxicity, mortality” value in the data set on 7 week-old dd mice is listed as “no mouse died”.

As for `O=C1O[C@H]([C@@H](O)CO[C@H]2O[C@H](CO)[C@@H](O)[C@H](O)[C@H]2O)C(O)=C1O` [substance Y, 6-O-α-D-glucopyranosyl-L-ascorbic acid, reference compound], the “Hydrolysis by enzyme of small intestinal membrane” value in data set [2] is “not substantially hydrolyzed”.

Take `O=C1O[C@H]([C@@H](O)CO)C(O)=C1O` [AsA, L-ascorbic acid]: in the data set “physchem” (pH 2), the “Stability, residual percentage” value came out at 100% and the fraction remaining at 21 h, 70 µM stood at 10%. In addition, in the data set “physchem” (pH 7), the “Stability, residual percentage” value is 100%; the fraction remaining at 0.5 h, 70 µM was 20%; the amount remaining at 1 h, 70 µM is 8%; the fraction remaining at 21 h, 70 µM amounted to 2%.
